Data as given in US7514424B2, “Substituted 4-(4-piperidin-4-yl-piperazin-1-yl)-azepane derivatives and their use as neurokinin antagonists” (Janssen Pharmaceutica N.V., priority 2002, dated 2009).

Columns and labels:
Experiment in all cases: Signal transduction (intracellular Ca++, FLIPR), functional antagonistic activity
Assay type in all cases: cell-based
h-NK1 = h-NK1 (Homo sapiens, UniProt P25103); settings: Ca++ peak, read-out: pIC50 h-NK1 (converted)
Protocol: (§1) This test evaluates in vitro functional NK1 antagonistic activity. For the measurements of intracellular Ca^++ concentrations the cells were grown on 96-well (black wall/transparent bottom) plates from Costar for 2 days until they reached confluence. The cells were loaded with 2 μM Fluo3 in DMEM containing 0.1% BSA and 2.5 mM probenecid for 1 h at 37° C. They were washed 3× with a Krebs buffer (140 mM NaCl, 1 mM MgCl2×6H2O, 5 mM KCl, 10 mM glucose, 5 mM HEPES; 1.25 mM CaCl2; pH 7.4) containing 2.5 mM probenecid and 0.1% BSA (Ca^++-buffer). The cells were preincubated with a concentration range of antagonists for 20 min at RT and Ca^++-signals after addition of the agonists were measured in a Fluorescence Image Plate
(§2) Reader (FLIPR from Molecular Devices, Crawley, England). The peak of the Ca^++-transient was considered as the relevant signal and the mean values of corresponding wells were analysed as described below.
(§3) The sigmoidal dose response curves were analysed by computerised curve-fitting, using the GraphPad Program. The EC50-value of a compound is the effective dose showing 50% of maximal effect. For mean curves the response to the agonist with the highest potency was normalised to 100%. For antagonist responses the IC50-value was calculated using non-linear regression.
(§4) The last colums indicates—without being limited thereto—for which action the compounds might be most suitable. Of course, since for some neurokinin receptors no data was determined, it is obvious that these compounds might be attributed to another suitable use.

h-NK3 = biological target: T1, h-NK3 (Homo sapiens, UniProt P29371); settings: Ca++ peak, read-out: pIC50 h-NK3 (converted)
T1 sequence (P29371 1-465): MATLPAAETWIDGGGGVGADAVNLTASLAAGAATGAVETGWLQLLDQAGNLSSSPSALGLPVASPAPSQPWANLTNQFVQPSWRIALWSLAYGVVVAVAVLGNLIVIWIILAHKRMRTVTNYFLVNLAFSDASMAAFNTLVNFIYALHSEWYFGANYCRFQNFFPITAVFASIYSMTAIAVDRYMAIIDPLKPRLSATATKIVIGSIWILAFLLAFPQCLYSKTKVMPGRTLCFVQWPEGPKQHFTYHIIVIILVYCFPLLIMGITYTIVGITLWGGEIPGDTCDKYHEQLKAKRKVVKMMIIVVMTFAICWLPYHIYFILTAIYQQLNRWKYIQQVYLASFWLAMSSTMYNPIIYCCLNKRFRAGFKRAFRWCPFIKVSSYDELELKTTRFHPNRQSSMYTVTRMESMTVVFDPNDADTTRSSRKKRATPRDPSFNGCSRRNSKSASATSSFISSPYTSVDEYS
Protocol: [Worded in the source for another target; this target is reported under the same test.] as §1, §2, §3, §4

h-NK2 = biological target: T2, h-NK2 (Homo sapiens, UniProt P21452); settings: Ca++ peak, read-out: pIC50 h-NK2 (converted)
T2 sequence (P21452 1-398): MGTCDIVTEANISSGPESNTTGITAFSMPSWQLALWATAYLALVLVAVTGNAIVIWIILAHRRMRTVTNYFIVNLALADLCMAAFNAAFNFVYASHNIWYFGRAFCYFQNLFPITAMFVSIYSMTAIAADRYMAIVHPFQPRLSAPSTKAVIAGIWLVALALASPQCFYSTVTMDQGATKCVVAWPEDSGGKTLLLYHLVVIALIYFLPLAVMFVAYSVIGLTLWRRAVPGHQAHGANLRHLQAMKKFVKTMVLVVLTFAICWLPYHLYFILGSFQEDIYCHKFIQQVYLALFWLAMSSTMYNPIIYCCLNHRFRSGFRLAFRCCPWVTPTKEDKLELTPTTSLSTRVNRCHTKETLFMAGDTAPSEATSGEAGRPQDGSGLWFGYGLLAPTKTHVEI
Protocol: [Worded in the source for another target; this target is reported under the same test.] as §1, §2, §3, §4

Sequence of h-NK1 (P25103 whole entry): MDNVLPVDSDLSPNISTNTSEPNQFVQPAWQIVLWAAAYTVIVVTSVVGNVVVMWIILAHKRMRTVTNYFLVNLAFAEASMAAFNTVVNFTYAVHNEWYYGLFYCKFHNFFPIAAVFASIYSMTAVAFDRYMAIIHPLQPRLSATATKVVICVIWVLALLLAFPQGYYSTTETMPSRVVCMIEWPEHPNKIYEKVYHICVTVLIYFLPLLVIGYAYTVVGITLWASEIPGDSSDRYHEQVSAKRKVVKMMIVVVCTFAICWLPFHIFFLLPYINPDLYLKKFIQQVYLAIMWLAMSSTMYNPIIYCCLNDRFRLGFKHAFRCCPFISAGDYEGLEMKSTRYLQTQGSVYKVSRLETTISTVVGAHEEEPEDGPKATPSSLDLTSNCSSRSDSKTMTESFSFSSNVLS

IC50 (h-NK1) [nM] | IC50 (h-NK3) [nM] | IC50 (h-NK2) [nM] | Compound
32.4 | 10000 | – | CC(C)(C)OC(=O)N1CCCC(N2CCN(C3CCN(C(=O)c4cc(C(F)(F)F)cc(C(F)(F)F)c4)C(Cc4ccccc4)C3)CC2)CC1 (stereo not shown) [Compound 1]
200 | – | – | O=C(c1ccccc1)N1CCCC(N2CCN(C3CCN(C(=O)c4cc(C(F)(F)F)cc(C(F)(F)F)c4)C(Cc4ccccc4)C3)CC2)CC1 (stereo not shown) [Compound 3]
166 | – | – | CCOC(=O)N1CCCC(N2CCN(C3CCN(C(=O)c4cc(C(F)(F)F)cc(C(F)(F)F)c4)C(Cc4ccccc4)C3)CC2)CC1 (stereo not shown) [Compound 4]
148 | – | – | O=C(c1ccc(F)c(F)c1)N1CCCC(N2CCN(C3CCN(C(=O)c4cc(C(F)(F)F)cc(C(F)(F)F)c4)C(Cc4ccccc4)C3)CC2)CC1 (stereo not shown) [Compound 5]
158 | 1350 | 9330 | O=C(c1cccc(F)c1)N1CCCC(N2CCN(C3CCN(C(=O)c4cc(C(F)(F)F)cc(C(F)(F)F)c4)C(Cc4ccccc4)C3)CC2)CC1 (stereo not shown) [Compound 6]
28.8 | 1910 | – | O=C(c1ccoc1)N1CCCC(N2CCN(C3CCN(C(=O)c4cc(C(F)(F)F)cc(C(F)(F)F)c4)C(Cc4ccccc4)C3)CC2)CC1 (stereo not shown) [Compound 7]
28.2 | 10000 | – | Cc1cc(C(=O)N2CCCC(N3CCN(C4CCN(C(=O)c5cc(C(F)(F)F)cc(C(F)(F)F)c5)C(Cc5ccccc5)C4)CC3)CC2)no1 (stereo not shown) [Compound 8]
302 | – | – | Cc1cccc(C(=O)N2CCCC(N3CCN(C4CCN(C(=O)c5cc(C(F)(F)F)cc(C(F)(F)F)c5)C(Cc5ccccc5)C4)CC3)CC2)c1 (stereo not shown) [Compound 9]
